The results in this text go back to patent US9475766B2, “Substituted aromatic sulfur compounds and methods of their use” (Cephalon, Inc., priority 2011, dated 2016).

What all share (format): cell-based
Assay [1] deals with BxPC3 pancreatic cell line. Put plainly: Cell survival and adhesion assay (luciferase), BxPC3. Conditions: BXPC-3, 5 hours, BxPC3 cells overlayed onto human mesothelial cell monolayers, read-out: relative reduction in Luciferase activity, BxPC3 10 μM. How it is done: (§1) SU86 is a pancreatic cancer cell line. HT29 is a colon cancer cell line. BxPC3 is a pancreatic cell line. A2780 is an ovarian cancer cell line.
(§2) BxPc-3 and Su.86.86 pancreatic and HT-29 colon and A2780 ovarian cancer cell lines were purchased from ATCC and cultured in DMEM supplemented with 10% fetal bovine serum, glutamine, penicillin, and streptomycin. All cells were cultured at 37° C. in a humidified incubator in a 5% CO2 atmosphere. The cancer cell lines were transduced with a retrovirus containing pLuc-puro, a constitutive luciferase reporter and selected in […] media. Transient transfection of a full-length human c-FLIP construct in the vector pcDNA3 was performed as previously described. Scaife et al. Cancer Research 2002, 62: 6870-78.
(§3) Pancreatic cancer cell cultures (BxPc-3 and Su.86.86) and colon cancer (HT-29) and ovarian cancer (A2780) cells that were stably transfected with a firefly luciferase construct were transiently suspended with trypsin-PBS. 10^5 cells were overlayed onto confluent monolayers of human mesothelial cells in 96-well plates while simultaneously adding various concentrations of compounds of the invention or DMSO for 5 hours. The non-adherent cells were carefully washed away from the wells twice with 100 μl/well of blocking buffer (1% BSA in PBS) and twice again with ice-cold PBS. Adherent and surviving cells were detected by luciferase activity in a luminometer as follows. The cells were lysed in 0.1% TritonX-100, 25 mM Gly-Gly (7.8), MgSO4, 4 mM EGTA, 1 mM DTT. The total protein concentration was normalized with lysis buffer. 50 μl of cell lysate was added per well of a 96-well microtiter plate. 50 μl of luciferin substrate (Promega) was added per well and then the light output determined in a luminometer.

For assay [2], the system named is A2780 ovarian cancer cell line. Description: Cell survival and adhesion assay (luciferase), A2780. Conditions: 5 hours, A2780 cells overlayed onto human mesothelial cell monolayers, read-out: relative reduction in Luciferase activity, A2780 10 μM. Here is the method:
as §1, §2, §3

In assay [3] the test system is SU86 pancreatic cancer cell line (Su.86.86). Description: Cell survival and adhesion assay (luciferase), SU86. Conditions: 5 hours, SU86 cells overlayed onto human mesothelial cell monolayers, read-out: relative reduction in Luciferase activity, SU86 10 μM. Here is the method:
as §1, §2, §3

For `CC(C)(C(=O)NCc1ccc(N)cc1)c1ccc(S(=O)(=O)/C=C/C#N)cc1` [Example 38, N-(4-Amino-benzyl)-2-[4-((E)-2-cyano-ethenesulfonyl)-phenyl]-isobutyramide], the inhibition at 10 µM in assay [1] was 10 to 50%.
`COc1cccc(NC(=O)C(C)(C)c2ccc(S(=O)(=O)/C=C/C#N)cc2)c1` [Example 25, 2-[4-((E)-2-Cyano-ethenesulfonyl)-phenyl]-N-(3-methoxy-phenyl)-isobutyramide]: the inhibition at 10 µM is more than 85% in assay [2], 50 to 85% in assay [3] and 50 to 85% in assay [1].
Consider `CN(Cc1ccccc1)C(=O)C(C)(C)c1ccc(S(=O)(=O)/C=C/C#N)cc1` [Example 22, N-Benzyl-2-[4-((E)-2-cyano-ethenesulfonyl)-phenyl]-N-methyl-isobutyramide], for which the inhibition at 10 µM is more than 85% in assay [2], 50 to 85% in assay [3] and more than 85% in assay [1].
On to `C#CCNC(=O)C(C)(C)c1ccc(S(=O)(=O)/C=C/C#N)cc1` [Example 19, 2-[4-((E)-2-Cyano-ethenesulfonyl)-phenyl]-N-prop-2-ynyl-isobutyramide], for which the inhibition at 10 µM in assay [2], in assay [3] and in assay [1] was 10 to 50% throughout.
With `N#C/C=C/S(=O)(=O)c1ccc(C2(C(=O)Nc3ccccc3)CCOCC2)cc1` [Example 84, 4-[4-((E)-2-Cyano-ethenesulfonyl)-phenyl]-tetrahydro-pyran-4-carboxylic acid phenylamide], the inhibition at 10 µM in assay [2] and in assay [1] was 10 to 50% each time.
As for `N#C/C=C/S(=O)(=O)c1ccc(C2(C(=O)NC3CCCCC3)CCOCC2)cc1` [Example 83, 4-[4-((E)-2-Cyano-ethenesulfonyl)-phenyl]-tetrahydro-pyran-4-carboxylic acid cyclohexylamide], the figures for the inhibition at 10 µM in assay [2] and in assay [1] were less than 10% and 10 to 50%, respectively.
In the case of `COc1cccc(NC(=O)C(C)(C)c2cccc(S(=O)(=O)/C=C/C#N)c2)c1` [Example 36, 2-[3-((E)-2-Cyano-ethenesulfonyl)-phenyl]-N-(3-methoxy-phenyl)-isobutyramide], in assay [1], the inhibition at 10 µM lay within 50 to 85%.
Turning to `C[C@H](NC(=O)C(C)(C)c1ccc(S(=O)(=O)/C=C/C#N)cc1)c1ccccc1` [Example 16, 2-[4-((E)-2-Cyano-ethenesulfonyl)-phenyl]-N—((S)-1-phenyl-ethyl)-isobutyramide], the inhibition at 10 µM in assay [2] was more than 85%; in assay [3] it was 50 to 85%; in assay [1], 50 to 85%.
Consider `CC(C)(C)OC(=O)NCCOCCOCCNC(=O)C(C)(C)c1ccc(S(=O)(=O)/C=C/C#N)cc1` [Example 34, {2-[2-(2-{2-[4-((E)-2-Cyano-ethenesulfonyl)-phenyl]-2-methyl-propionylamino}-ethoxy)-ethoxy]-ethyl}-carbamic acid tert-butyl ester], for which the inhibition at 10 µM in assay [1] is less than 10%.
For `CC(C)(C(=O)NCc1ccc(-n2cccn2)cc1)c1ccc(S(=O)(=O)/C=C/C#N)cc1` [Example 21, 2-[4-((E)-2-Cyano-ethenesulfonyl)-phenyl]-N-(4-pyrazol-1-yl-benzyl)-isobutyramide], the inhibition at 10 µM in assay [2], in assay [3] and in assay [1] was 50 to 85% throughout.
For the compound `C[C@@H](NC(=O)C(C)(C)c1ccc(S(=O)(=O)/C=C/C#N)cc1)c1ccccc1` [Example 17, 2-[4-((E)-2-Cyano-ethenesulfonyl)-phenyl]-N—((R)-1-phenyl-ethyl)-isobutyramide], the inhibition at 10 µM is more than 85% in assay [2], 50 to 85% in assay [3] and 50 to 85% in assay [1].
With `CC(C)(C(=O)NC1CCCCC1)c1cccc(S(=O)(=O)/C=C/C#N)c1` [Example 35, 2-[3-((E)-2-Cyano-ethenesulfonyl)-phenyl]-N-cyclohexyl-isobutyramide], the inhibition at 10 µM in assay [1] fell in the range of 50 to 85%.
`CC(C)(C(=O)NCc1ccc(F)cc1)c1ccc(S(=O)(=O)/C=C/C#N)cc1` [Example 18, 2-[4-((E)-2-Cyano-ethenesulfonyl)-phenyl]-N-(4-fluoro-benzyl)-isobutyramide]: the inhibition at 10 µM in assay [2] was more than 85%; in assay [3], 50 to 85%; in assay [1], 50 to 85%.
Consider `N#C/C=C/S(=O)(=O)c1ccc(C2(C(=O)NC3CCCCC3)CCC2)cc1` [Example 77, 1-[4-((E)-2-Cyano-ethenesulfonyl)-phenyl]-cyclobutanecarboxylic acid cyclohexylamide], for which the inhibition at 10 µM in assay [2] is more than 85%; in assay [1] it was 50 to 85%.
The like results for `N#C/C=C/S(=O)(=O)c1ccc(C2(C(=O)O)CCC2)cc1` [Example 74, 1-[4-((E)-2-Cyano-ethenesulfonyl)-phenyl]-cyclobutanecarboxylic acid] were, in that order, less than 10% and less than 10%.
On to `N#C/C=C/S(=O)(=O)c1ccc(C2(C(=O)NCc3ccc(F)cc3)CC2)cc1` [Example 67, 1-[4-((E)-2-Cyano-ethenesulfonyl)-phenyl]-cyclopropanecarboxylic acid 4-fluoro-benzylamide], for which the inhibition at 10 µM in assay [2] was more than 85%; in assay [1], 50 to 85%.
`N#C/C=C/S(=O)(=O)c1ccc(C2(C(=O)NCc3ccc(Cl)cc3)CCC2)cc1` [Example 76, 1-[4-((E)-2-Cyano-ethenesulfonyl)-phenyl]-cyclobutanecarboxylic acid 4-chloro-benzylamide]: the inhibition at 10 µM in assay [2] was more than 85%; in assay [1] it was 50 to 85%.
As for `CCNc1nnc(C(C)(C)c2ccc(S(=O)(=O)/C=C/C#N)cc2)o1` [Example 48, (E)-3-{4-[1-(5-Ethylamino-[1,3,4]oxadiazol-2-yl)-1-methyl-ethyl]-benzenesulfonyl}-acrylonitrile], the inhibition at 10 µM in assay [2] was 10 to 50%; in assay [3], less than 10%; in assay [1], less than 10%.
With `CC(C)(c1ccc(S(=O)(=O)/C=C/C#N)cc1)c1nc2ccccc2[nH]1` [Example 49, (E)-3-{4-[1-(1H-Benzimidazol-2-yl)-1-methyl-ethyl]-benzenesulfonyl}-acrylonitrile], the inhibition at 10 µM in assay [2], in assay [3] and in assay [1] was less than 10% in each case.
`CC(C)(C(=O)NCc1cccc(F)c1)c1ccc(S(=O)(=O)/C=C/C#N)cc1` [Example 39, 2-[4-((E)-2-Cyano-ethenesulfonyl)-phenyl]-N-(3-fluoro-benzyl)-isobutyramide]: the inhibition at 10 µM in assay [1] lay in the range of 10 to 50%.
Turning to `CC(C)(C(=O)NCc1ccc(F)cc1)c1cccc(S(=O)(=O)/C=C/C#N)c1` [Example 37, 2-[3-((E)-2-Cyano-ethenesulfonyl)-phenyl]-N-(4-fluoro-benzyl)-isobutyramide], the inhibition at 10 µM in assay [1] fell in the range of 50 to 85%.
For `N#C/C=C/S(=O)(=O)c1ccc(C2(C(=O)Nc3ccccc3)CCC2)cc1` [Example 75, 1-[4-((E)-2-Cyano-ethenesulfonyl)-phenyl]-cyclobutanecarboxylic acid phenylamide], the inhibition at 10 µM in assay [2] is 50 to 85%; in assay [1], more than 85%.
The like results for `Cc1ccc2oc(COc3ccc(S(=O)(=O)/C=C/C#N)cc3C(C)(C)C)nc2c1` [Example 81, (E)-3-[3-tert-Butyl-4-(5-methyl-benzoxazol-2-ylmethoxy)-benzenesulfonyl]-acrylonitrile] were, in that order, more than 85% and 50 to 85%.
In the same order, the values of `N#C/C=C/S(=O)(=O)c1ccc(C2(C(=O)NCc3ccc(Cl)cc3)CCOCC2)cc1` [Example 85, 4-[4-((E)-2-Cyano-ethenesulfonyl)-phenyl]-tetrahydro-pyran-4-carboxylic acid 4-chloro-benzylamide] are 50 to 85% and 50 to 85%.
The like results for `N#C/C=C/S(=O)(=O)c1ccc(C2(C(=O)NC3CCCCC3)CC2)cc1` [Example 68, 1-[4-((E)-2-Cyano-ethenesulfonyl)-phenyl]-cyclopropanecarboxylic acid cyclohexylamide] were, in that order, more than 85% and 50 to 85%.
Consider `N#C/C=C/S(=O)(=O)c1ccc(C2(C(=O)O)CCOCC2)cc1` [Example 82, 4-[4-((E)-2-Cyano-ethenesulfonyl)-phenyl]-tetrahydro-pyran-4-carboxylic acid], for which the inhibition at 10 µM in assay [2] and in assay [1] was less than 10% throughout.
On to `Cc1ccc(O)c(NC(=O)COc2ccc(S(=O)(=O)/C=C/C#N)cc2C(C)(C)C)c1` [Example 79, 2-[2-tert-Butyl-4-((E)-2-cyano-ethenesulfonyl)-phenoxy]-N-(2-hydroxy-5-methyl-phenyl)-acetamide], for which the inhibition at 10 µM in assay [2] and in assay [1] was more than 85% throughout.
